Here are results for 44 compounds from US7879838B2, “Heteroaryl substituted pyrazinyl-piperazine-piperidines with CXCR3 antagonist activity” (Schering Corporation, priority 2005, dated 2011).

The assay concerns the target T1, Human CXCR3 (N-delta 4) (Homo sapiens, UniProt P49682).
T1 construct: CD8 leader (N); Flag tag; expressed in transfected cells; membranes prepared
T1 sequence (P49682 5-368 limits assumed): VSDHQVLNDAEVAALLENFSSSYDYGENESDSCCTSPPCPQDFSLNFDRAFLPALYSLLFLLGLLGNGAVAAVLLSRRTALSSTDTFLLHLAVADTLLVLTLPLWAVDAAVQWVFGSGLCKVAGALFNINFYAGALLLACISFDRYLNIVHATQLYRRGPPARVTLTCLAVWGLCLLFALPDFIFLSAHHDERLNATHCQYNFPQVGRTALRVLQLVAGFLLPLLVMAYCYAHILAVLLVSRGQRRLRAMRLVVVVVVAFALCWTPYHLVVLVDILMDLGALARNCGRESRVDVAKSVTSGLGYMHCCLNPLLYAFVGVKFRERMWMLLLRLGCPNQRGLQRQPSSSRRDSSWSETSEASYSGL
As to the kind of experiment: Human CXCR3 (N-delta 4) scintillation proximity assay (SPA), [125I] IP-10 binding to Ba/F3-hCXCR3 membranes. As to conditions: IC50 rating; 25 pM [125I] IP-10, membranes of Ba/F3 cells expressing human CXCR3 (N-delta 4). The source says: The inventive compounds can readily be evaluated to determine activity at The CXCR3 receptors by known methods, such as, for example, Development of Human CXCR3 (N-delta 4) Binding Assay.
Cloning and Expression of Human CXCR3 (N-delta 4):
The DNA encoding human CXCR3 was cloned by PCR using human genomic DNA (Promega, Madison, Wis.) as a template. The PCR primers were designed based on the published sequence of human orphan receptor GPR9 (1) with incorporated restriction sites, a Kozak consensus sequence, CD8 leader and Flag tag. The PCR product was subcloned into the mammalian expression vector pME18Sneo, a derivative of the SR-alpha expression vector (designated as pME18Sneo-hCXCR3 (N-delta 4).
IL-3-dependent mouse pro-B cells Ba/F3 were transfected by electroporation in 0.4 ml Dulbecco's PBS containing 4×10^6 cells with 20 μg of pME18Sneo-hCXCR3 (N-delta 4) plasmid DNA. Cells were pulsed at 400 Volts, 100 OHMs, 960 μFd. The transfected cells were under selection with 1 mg/ml G418 (Life Technologies, Gaithersburg, Md.). G418-resistant Ba/F3 clones were screened for CXCR3 expression by specific binding of [^125I] IP-10 (NEN Life Science Products, Boston, Mass.).
Preparation of Ba/F3-hCXCR3 (N-delta 4) Membranes
Ba/F3 cells expressing human CXCR3 (N-delta 4) were pelleted and resuspended in the lysis buffer containing 10 mM HEPES, pH 7.5 and Complete® protease inhibitors (1 tablet per 100 ml) (Boehringer Mannheim, Indianapolis, Ind.) at a cell density of 20×10^6 cells per ml. After 5 minutes incubation on ice, cells were transferred to 4639 cell disruption bomb (Parr Instrument, Moline, Ill.) and applied with 1,500 psi of nitrogen for 30 minutes on ice. Large cellular debris was removed by centrifugation at 1,000×g. Cell membrane in the supernatant was sedimented at 100,000×g. The membrane was resuspended in the lysis buffer supplemented with 10% sucrose and stored at −80° C. Total protein concentration of the membrane was determined by BCA method from Pierce (Rockford, Ill.).
Human CXCR3 (N-delta 4) Scintillation Proximity Assay (SPA)
For each assay point, 2 μg of membrane was preincubated for 1 hr with 300 μg wheat germ agglutinin (WGA) coated SPA beads (Amersham, Arlington Heights, Ill.) in the binding buffer (50 mM HEPES, 1 mM CaCl2, 5 mM MgCl2, 125 mM NaCl, 0.002% NaN3, 1.0% BSA) at room temperature. The beads were spun down, washed once, resuspended in the binding buffer and transferred to a 96-well Isoplate (Wallac, Gaithersburg, Md.). 25 pM of [^125I] IP-10 with tested compounds in a series of titration were added to start the reaction. After 3 hr reaction at room temperature, the amount of [^125I] IP-10 bound to the SPA beads was determined with a Wallac 1450 Microbeta counter.
The Ki values for the various example compounds of the present invention are given in the afore-mentioned Table 1. From these values, it would be apparent to the skilled artisan that the compounds of the invention have excellent utility CXCR3 antagonists.
On the technique in general: SPA uses beads or plates that emit light when radiolabelled molecules are held near them.

For the compound `CC[C@H]1CN(c2nc(N)c(C(=O)NCC3CC3)nc2Cl)CCN1C1CCN(C(=O)c2ccc(Cl)nc2N)CC1` [compound 21], the IC50 (as a rule, the point on the concentration scale where inhibition reaches its midpoint) was less than 25 nM. In the case of `CC[C@H]1CN(c2nc(N)c(C(=O)NCCO)nc2Cl)CCN1C1CCN(C(=O)c2cc(F)c(Cl)nc2Cl)CC1` [compound 22] it was less than 25 nM; in that of `CC[C@H]1CN(c2nc(N)c(C(=O)NC3(CO)CC3)nc2Cl)CCN1C1CCN(C(=O)c2ccc(Cl)nc2N)CC1` [compound 24], less than 25 nM.

In the case of `CC[C@H]1CN(c2nc(N)c(C(=O)NCC(C)O)nc2Cl)CCN1C1CCN(C(=O)c2ccc(Cl)nc2N)CC1` (some centres unmarked) [compound 25], the IC50 was less than 25 nM. Compound `CC[C@H]1CN(c2nc(N)c(C(=O)NCCC#N)nc2Cl)CCN1C1CCN(C(=O)c2ccc(Cl)nc2N)CC1` [compound 26] returned an IC50 of less than 25 nM. In the case of `CC[C@H]1CN(c2nc(N)c(C(=O)NC3CCCC3O)nc2Cl)CCN1C1CCN(C(=O)c2ccc(Cl)nc2N)CC1` (some centres unmarked) [compound 27] it was less than 25 nM; in that of `CC[C@H]1CN(c2nc(N)c(C(=O)Nc3ncc[nH]3)nc2Cl)CCN1C1CCN(C(=O)c2ccc(Cl)nc2N)CC1` [compound 28], less than 25 nM. Then `CC[C@H]1CN(c2nc(N)c(C(=O)NCCO)nc2Cl)CCN1C1CCN(Cc2ccc(Cl)nc2Cl)CC1` [compound 29], with less than 25 nM. Then `CC[C@H]1CN(c2nc(NCCC(=O)OC)c(C(=O)NC3CC3)nc2Cl)CCN1C1CCN(C(=O)c2ccc(Cl)nc2N)CC1` [compound 30], with less than 25 nM.

Regarding `CC[C@H]1CN(c2nc(N)c(C(N)=O)nc2Cl)CCN1C1CCN(Cc2ccc(Cl)nc2N)CC1` [compound 31], the IC50 was less than 25 nM. For `CC[C@H]1CN(c2nc(N)c(C(=O)NCC3(O)CC3)nc2Cl)CCN1C1CCN(C(=O)c2ccc(Cl)nc2N)CC1` [compound 32], the IC50 is less than 25 nM. In the case of `CC[C@H]1CN(c2nc(N)c(C(=O)Nc3ccon3)nc2Cl)CCN1C1CCN(C(=O)c2ccc(Cl)nc2N)CC1` [compound 33] it was less than 25 nM; in that of `CC[C@H]1CN(c2nc(N)c(C(=O)NCCNS(C)(=O)=O)nc2Cl)CCN1C1CCN(Cc2ccc(Cl)nc2N)CC1` [compound 34], less than 25 nM; in that of `CC[C@H]1CN(c2nc(N)c(C(N)=O)nc2Cl)CCN1C1CCN(C(=O)c2ccc(Cl)nc2N)CC1` [compound 35], less than 25 nM. As to `CC[C@H]1CN(c2nc(N)c(C(=O)N[C@@H]3C[C@@H]3F)nc2Cl)CCN1C1CCN(C(=O)c2ccc(Cl)nc2N)CC1` [compound 37], the IC50 was less than 25 nM. In the case of `CC[C@H]1CN(c2nc(NC(=O)N(C)C)c(C(=O)NC3CC3)nc2Cl)CCN1C1CCN(C(=O)c2ccc(Cl)nc2N)CC1` [compound 38] it was less than 25 nM; in that of `CC[C@H]1CN(c2nc(N)c(C(=O)NCCO)nc2Cl)CCN1C1CCN(Cc2ccc(OC)nc2)CC1` [compound 39], less than 25 nM; in that of `CC[C@H]1CN(c2nc(N)c(C(=O)NCCO)nc2Cl)CCN1C1CCN(C(=O)c2ccc(Cl)nc2Cl)CC1` [compound 40], less than 25 nM. In the case of `CC[C@H]1CN(c2nc(N)c(C(N)=O)nc2Cl)CCN1C1CCN(C(=O)c2cc(F)c(Cl)nc2N)CC1` [compound 41] it was less than 25 nM. In the case of `CC[C@H]1CN(c2nc(N)c(C(=O)N[C@H]3CCC[C@@H]3O)nc2Cl)CCN1C1CCN(C(=O)c2ccc(Cl)nc2N)CC1` [compound 42] it was less than 25 nM; in that of `CC[C@H]1CN(c2nc(N)c(C(=O)NC)nc2Cl)CCN1C1CCN(C(=O)c2ccc(Cl)nc2Cl)CC1` [compound 43], less than 25 nM; in that of `CC[C@H]1CN(c2nc(N)c(C(=O)NC)nc2Cl)CCN1C1CCN(C(=O)c2ccc(Cl)nc2)CC1` [compound 44], less than 25 nM. For the compound `CC[C@H]1CN(c2nc(N)c(C(=O)NC)nc2Cl)CCN1C1CCN(C(=O)c2cc(F)c(Cl)nc2Cl)CC1` [compound 45], the IC50 was less than 25 nM. In the case of `CCNC(=O)NCc1nc(Cl)c(N2CCN(C3CCN(C(=O)c4ccc(Cl)nc4N)CC3)[C@@H](CC)C2)nc1N` [compound 47] it was less than 25 nM. In the case of `CC[C@H]1CN(c2nc(N)c(C(N)=O)nc2Cl)CCN1C1CCN(Cc2ccc(Cl)nc2)CC1` [compound 49] it was 25 to 100 nM. In the case of `CC[C@H]1CN(c2nc(N)c(C(=O)NCCNS(C)(=O)=O)nc2Cl)CCN1C1CCN(C(=O)c2ccc(Cl)nc2N)CC1` [compound 50] it was 25 to 100 nM; in that of `CC[C@H]1CN(c2nc(N)c(C(=O)NC3CCOC3)nc2Cl)CCN1C1CCN(C(=O)c2ccc(Cl)nc2N)CC1` (some centres unmarked) [compound 51], 25 to 100 nM. Take `CC[C@H]1CN(c2nc(N)c(C(=O)NCCN3CCCC3)nc2Cl)CCN1C1CCN(C(=O)c2ccc(Cl)nc2N)CC1` [compound 52]: the 50% inhibitory concentration (IC50) is 25 to 100 nM. Then `CC[C@H]1CN(c2nc(N)c(C(=O)NCCS(C)(=O)=O)nc2Cl)CCN1C1CCN(Cc2ccc(Cl)nc2N)CC1` [compound 53], with 25 to 100 nM; and `CC[C@H]1CN(c2nc(N)c(C(=O)NC3CCS(=O)(=O)C3)nc2Cl)CCN1C1CCN(C(=O)c2ccc(Cl)nc2N)CC1` (some centres unmarked) [compound 54], with 25 to 100 nM; and `CC[C@H]1CN(c2nc(N)c(C(=O)NC3CCOC3=O)nc2Cl)CCN1C1CCN(C(=O)c2ccc(Cl)nc2N)CC1` (some centres unmarked) [compound 55], with 25 to 100 nM. Then `CC[C@H]1CN(c2nc(N)c(C(N)=O)nc2Cl)CCN1C1CCN(C(=O)c2cc(F)c(Cl)nc2Cl)CC1` [compound 56], with 25 to 100 nM; and `CC[C@H]1CN(c2nc(N)c(C(=O)NCc3ccco3)nc2Cl)CCN1C1CCN(C(=O)c2ccc(Cl)nc2N)CC1` [compound 57], with 25 to 100 nM; and `CC[C@H]1CN(c2nc(NCc3ccc(F)c(F)c3)c(C(=O)OC)nc2Cl)CCN1C1CCN(C(=O)c2ccc(Cl)nc2N)CC1` [compound 60], with 25 to 100 nM. In turn, `CC[C@H]1CN(c2nc(N)c(C(=O)NC3COCC3O)nc2Cl)CCN1C1CCN(C(=O)c2ccc(Cl)nc2N)CC1` (some centres unmarked) [compound 61] yielded an IC50 of 25 to 100 nM. Then `CC[C@H]1CN(c2nc(N)c(C(=O)NCc3cccs3)nc2Cl)CCN1C1CCN(C(=O)c2ccc(Cl)nc2N)CC1` [compound 62], with 25 to 100 nM. In the case of `CC[C@H]1CN(c2nc(N)c(C(=O)NCCO)nc2Cl)CCN1C1CCN(C(=O)c2ccc(C(F)(F)F)nc2N)CC1` [compound 63] it was 25 to 100 nM; in that of `CC[C@H]1CN(c2nc(N)c(C(=O)NCCN(C)C)nc2Cl)CCN1C1CCN(C(=O)c2ccc(Cl)nc2N)CC1` [compound 64], 25 to 100 nM; in that of `CC[C@H]1CN(c2nc(N)c(C(=O)NN)nc2Cl)CCN1C1CCN(C(=O)c2ccc(Cl)nc2N)CC1` [compound 65], 25 to 100 nM.

In turn, `CC[C@H]1CN(c2nc(N)c(C(=O)NCCO)nc2Cl)CCN1C1CCN(Cc2ccc(Cl)nc2N2CCOCC2)CC1` [compound 66] showed a 50% inhibitory concentration (IC50) of 25 to 100 nM. The compound `CC[C@H]1CN(c2nc(N)c(C(=O)NCCS(C)(=O)=O)nc2Cl)CCN1C1CCN(C(=O)c2ccc(Cl)nc2N)CC1` [compound 67] showed a 50% inhibitory concentration (IC50) of 25 to 100 nM.

`CC[C@H]1CN(c2nc(N)c(C(=O)NCCO)nc2Cl)CCN1C1CCN(C(=O)c2ccc(C(F)(F)F)nc2Cl)CC1` [compound 68] came in with a half-maximal inhibitory concentration (IC50) of 25 to 100 nM. For `CC[C@H]1CN(c2nc(N)c(C(=O)NN)nc2Cl)CCN1C1CCN(C(=O)c2ccc(-n3cccc3)nc2)CC1` [compound 69], the 50% inhibitory concentration (IC50) lay in the range of 25 to 100 nM. Then `CC[C@H]1CN(c2nc(N)c(C(=O)NCCO)nc2Cl)CCN1C1CCN(Cc2ccc(C(F)(F)F)nc2)CC1` [compound 70], with 25 to 100 nM.
